What all share (experiment): biochemical
The target in experiment [1] is SaTrm10 (Sulfolobus acidocaldarius, UniProt Q4J894, D220N).
In experiment [2] the target is T1, SaTrm10 (Sulfolobus acidocaldarius, UniProt Q4J894).
T1 sequence (Q4J894 1-292): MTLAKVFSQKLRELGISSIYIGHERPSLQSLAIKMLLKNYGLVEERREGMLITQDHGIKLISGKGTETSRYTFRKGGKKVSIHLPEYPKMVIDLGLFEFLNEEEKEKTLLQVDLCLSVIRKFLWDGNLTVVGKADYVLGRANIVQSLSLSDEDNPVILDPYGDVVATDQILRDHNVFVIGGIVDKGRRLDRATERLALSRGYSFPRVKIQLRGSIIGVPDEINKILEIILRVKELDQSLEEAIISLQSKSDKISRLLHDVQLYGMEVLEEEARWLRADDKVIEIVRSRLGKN

Experiment [3] concerns the target SaTrm10 (Sulfolobus acidocaldarius, UniProt Q4J894, D184N).

As usually defined, the Kd is the concentration at which binding is half-saturated.

Sequence of SaTrm10 (Sulfolobus acidocaldarius, UniProt Q4J894, D220N) (Q4J894 whole entry D220N): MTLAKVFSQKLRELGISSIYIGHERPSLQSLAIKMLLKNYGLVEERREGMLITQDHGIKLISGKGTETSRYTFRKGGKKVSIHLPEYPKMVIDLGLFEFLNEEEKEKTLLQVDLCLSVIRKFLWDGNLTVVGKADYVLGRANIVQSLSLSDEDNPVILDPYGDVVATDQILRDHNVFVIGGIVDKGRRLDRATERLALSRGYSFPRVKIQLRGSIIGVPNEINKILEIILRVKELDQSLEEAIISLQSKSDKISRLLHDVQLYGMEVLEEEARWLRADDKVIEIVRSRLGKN
Sequence of SaTrm10 (Sulfolobus acidocaldarius, UniProt Q4J894, D184N) (Q4J894 whole entry D184N): as the sequence (Q4J894 whole entry D220N) above, with D184N, N220D counted along it

Regarding `C[S+](CC[C@H](N)C(=O)O)C[C@H]1O[C@@H](n2cnc3c(N)ncnc32)[C@H](O)[C@@H]1O` (stereo partly drawn) [S-adenosyl methionine], the Kd in experiment [1] turned out to be 47 ± 8 µM; in experiment [2], 33 ± 4 µM; in experiment [3], 28 ± 5 µM.

Source of the values: PMC4737155 (Nucleic Acids Research, 2015).
